Consider 27 molecules from patent publication US20100267784A1, “NOVEL 4,5-DIHYDROISOXAZOLES WITH ESTROGENIC ACTIVITY” (priority 2007, published 2010).

Assay [1] addresses T1, ERα (Homo sapiens, UniProt P03372).
T1 sequence (P03372 1-595): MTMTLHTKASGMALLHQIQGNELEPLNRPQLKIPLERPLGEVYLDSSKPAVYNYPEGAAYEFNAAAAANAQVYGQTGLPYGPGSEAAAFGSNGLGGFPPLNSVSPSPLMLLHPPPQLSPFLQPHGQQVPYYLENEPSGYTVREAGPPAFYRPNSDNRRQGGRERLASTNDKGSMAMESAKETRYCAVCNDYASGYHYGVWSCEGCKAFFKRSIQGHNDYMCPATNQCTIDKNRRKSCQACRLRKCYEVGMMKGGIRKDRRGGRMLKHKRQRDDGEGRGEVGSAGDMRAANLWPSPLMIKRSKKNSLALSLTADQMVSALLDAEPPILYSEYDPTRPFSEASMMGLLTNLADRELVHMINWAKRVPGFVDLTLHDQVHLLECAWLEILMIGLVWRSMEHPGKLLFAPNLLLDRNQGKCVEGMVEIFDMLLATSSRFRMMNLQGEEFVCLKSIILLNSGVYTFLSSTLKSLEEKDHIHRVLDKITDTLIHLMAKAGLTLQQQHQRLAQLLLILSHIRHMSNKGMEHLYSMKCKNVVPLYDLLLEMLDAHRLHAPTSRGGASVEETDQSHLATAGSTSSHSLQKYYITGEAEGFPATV
In words: ERα reporter (luciferase) transactivation assay in transfected HEK293 cells. In kind it is cell-based. The arrangement: expressed in transfected cells; host or cells: HEK293. The following applies: sample concentration 10 μM, 24 hours, mean of at least three independent transfections. The procedure:
(§1) Determination of the Estrogen Activity of the Compounds: Cell Culture, Transfection and Reporter Assays
(§2) All other reagents were of reagent grade from Sigma or Fluka. One day before transfection, HEK293 cells were seeded in 48-well plates (70×10^3 cells per well) in phenol-free Dulbecco's modified Eagle medium supplemented with 5% delipidated fetal bovine serum (Sigma) and antibiotics. After a medium change, the cells were transfected for 4 hours with 5 ng ERα or ERβ expression vector, 75 ng reporter plasmid pERE2TATA-LUC and 20 ng control plasmid pCMVβ by the calcium phosphate method. After transfection, the cells received fresh medium containing either vehicle (0.1% v/v) or test compound (10 μM). After 24 hours, the cells were washed, lysed and luciferase and β-galactosidase activities were determined from 20 μl of lysates with the Victor^2TM reader (PerkinElmer Wallac, Turku, Finland). […] The data are means ±SEM of at least three independent transfections.

Assay [2] addresses ERβ (Homo sapiens, UniProt Q92731). In words: ERβ reporter (luciferase) transactivation assay in transfected HEK293 cells. The following applies: for activation at 10 µM: HEK293, 24 h, read-out: ERβ receptor activation relative to 10 nM E2 corresponding 100, sample concentration 10 μM, mean of at least three independent transfections; for ERβ receptor activation relative to 10 nM E2 corresponding 100: sample concentration 10 μM, 24 hours, mean of at least three independent transfections. Also on record: expressed in transfected cells; host or cells: HEK293. In kind it is cell-based. On the procedure: as §1, §2

Values joined by “and” are separate entries in the source; they are usually repeats but may differ in a detail not shown here. Equal values may be shown once.

Sequence of ERβ (Q92731 whole entry): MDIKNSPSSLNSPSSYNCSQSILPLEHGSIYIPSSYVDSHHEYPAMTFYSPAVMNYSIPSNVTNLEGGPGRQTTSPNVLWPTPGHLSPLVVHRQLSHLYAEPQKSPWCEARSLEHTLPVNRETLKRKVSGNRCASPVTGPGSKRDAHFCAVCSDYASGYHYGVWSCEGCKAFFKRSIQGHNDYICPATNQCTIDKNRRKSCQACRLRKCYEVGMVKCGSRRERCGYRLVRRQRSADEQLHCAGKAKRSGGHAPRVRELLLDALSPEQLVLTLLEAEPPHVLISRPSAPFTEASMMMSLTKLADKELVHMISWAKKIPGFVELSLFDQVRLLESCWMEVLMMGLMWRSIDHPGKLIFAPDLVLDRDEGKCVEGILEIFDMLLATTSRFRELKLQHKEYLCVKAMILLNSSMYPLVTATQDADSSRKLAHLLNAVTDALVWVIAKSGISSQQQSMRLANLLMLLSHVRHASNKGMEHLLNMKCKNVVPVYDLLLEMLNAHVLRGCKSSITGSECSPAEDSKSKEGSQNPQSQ

`c1ccc(CCC2=NOC(c3ccccc3)C2)cc1` (single isomer, unassigned) [110a, 3-Phenethyl-5-phenyl-4,5-dihydroisoxazole]: the “ERα receptor activation relative to 10 nM E2 corresponding 100” value in assay [1] was 16.4%. Besides, in assay [2], the activation at 10 µM is 9.8%.
As for `Oc1ccc(CCC2=NOC(CCc3ccccc3)C2)cc1` (single isomer, unassigned) [106b, 3-[2-(4-Hydroxy-phenyl)-ethyl]-5-phenethyl-4,5-dihydro-isoxazole], in assay [1], the “ERα receptor activation relative to 10 nM E2 corresponding 100” value amounted to 15.8%. Further, the “ERβ receptor activation relative to 10 nM E2 corresponding 100” value in assay [2] is 0.8%.
For `Oc1ccccc1CCC1=NOC(CCc2ccccc2)C1` (single isomer, unassigned) [104a, 3[2-(2-Hydroxy-phenyl)-ethyl]-5-phenethyl-4,5-dihydro-isoxazole], the “ERα receptor activation relative to 10 nM E2 corresponding 100” value in assay [1] was determined as 4.5%. Further, in assay [2], the activation at 10 µM is 4.2%.
Turning to `Oc1cccc(CCC2=NOC(Cc3ccccc3)C2)c1` (single isomer, unassigned) [92a, 5-Benzyl-3-[2-(3-hydroxy-phenyl)-ethyl]-4,5-dihydro-isoxazole], the “ERα receptor activation relative to 10 nM E2 corresponding 100” value in assay [1] worked out at 19.2%. The “ERβ receptor activation relative to 10 nM E2 corresponding 100” value in assay [2] was found to be 6.7%.
The corresponding values for `Oc1ccc(CCCC2=NOC(Cc3ccccc3)C2)cc1` (single isomer, unassigned) [99a, 5-Benzyl-3-[3-(4-hydroxy-phenyl)-propyl]-4,5-dihydro-isoxazole] are 153.7% and 78.2%.
As to `Oc1cccc(C2CC(Cc3ccccc3)=NO2)c1` (stereo not drawn) [82ab, 3-Benzyl-5-(3-hydroxy-phenyl)-4,5-dihydro-isoxazole], the “ERα receptor activation relative to 10 nM E2 corresponding 100” value in assay [1] was determined as 21.6%. Further, the activation at 10 µM in assay [2] came out at 6.6%.
Turning to `c1ccc(CCC2CC(c3ccccc3)=NO2)cc1` (single isomer, unassigned) [111a, 5-Phenethyl-3-phenyl-4,5-dihydroisoxazole], the “ERα receptor activation relative to 10 nM E2 corresponding 100” value in assay [1] is reported as 22.8%. Further, the “ERβ receptor activation relative to 10 nM E2 corresponding 100” value in assay [2] amounted to 8.5%.
As to `CC1(c2ccccc2)CC(CCc2ccccc2)=NO1` (single isomer, unassigned) [71a, 5-Methyl-3-phenethyl-5-phenyl-4,5-dihydroisoxazole], the “ERα receptor activation relative to 10 nM E2 corresponding 100” value in assay [1] turned out to be 8.1%. Besides, the “ERβ receptor activation relative to 10 nM E2 corresponding 100” value in assay [2] is given as −20.0%.
The corresponding values for `Oc1ccc(CCC2=NOC(Cc3ccc(O)cc3)C2)cc1` (single isomer, unassigned) [96b, 5-(4-Hydroxy-benzyl)-3-[2-(4-hydroxy-phenyl)-ethyl]-4,5-dihydro-isoxazole] are 81.4% and 4.1%.
The corresponding values for `Oc1ccc(CC2CC(CCCc3ccccc3)=NO2)cc1` (single isomer, unassigned) [100b, 5-(4-Hydroxy-benzyl)-3-(3-phenyl-propyl)-4,5-dihydro-isoxazole] are 97.2% and 17.0%.
In the case of `Oc1ccccc1CCC1=NOC(Cc2ccccc2)C1` (single isomer, unassigned) [91a, 5-Benzyl-3-[2-(2-hydroxy-phenyl)-ethyl]-4,5-dihydro-isoxazole], the “ERα receptor activation relative to 10 nM E2 corresponding 100” value in assay [1] was 104.8%. The activation at 10 µM in assay [2] is 19.2%.
As to `c1ccc(CCC2=NOC(Cc3cccc4ccccc34)C2)cc1` (single isomer, unassigned) [67a, 5-naphthalen-1-yl-methyl-3-phenethyl-4,5-dihydroisoxazole], in assay [1], the “ERα receptor activation relative to 10 nM E2 corresponding 100” value is recorded as 34.1%. The activation at 10 µM in assay [2] amounted to 10.5%.
`Oc1ccc(CC2CC(CCCc3ccccc3)=NO2)cc1` (single isomer, unassigned) [100a, 5-(4-Hydroxy-benzyl)-3-(3-phenyl-propyl)-4,5-dihydro-isoxazole]: the “ERα receptor activation relative to 10 nM E2 corresponding 100” value in assay [1] came out at 67.1%. For the same molecule, in assay [2], the “ERβ receptor activation relative to 10 nM E2 corresponding 100” value is listed as 4.7%.
Regarding `COc1ccc(CC2CC(CCc3ccccc3)=NO2)cc1` (single isomer, unassigned) [65b, 5-(4-Methoxybenzyl)-3-phenethyl-4,5-dihydroisoxazole], the “ERα receptor activation relative to 10 nM E2 corresponding 100” value in assay [1] is on record as 16.1%. In addition, the activation at 10 µM in assay [2] is 13.2%.
Take `COc1ccc(C2=NOC(Cc3ccccc3)C2)cc1` (single isomer, unassigned) [12b, 5-Benzyl-3-(4-methoxyphenyl)-4,5-dihydroisoxazole]: in assay [1], the “ERα receptor activation relative to 10 nM E2 corresponding 100” value came out at 9.7%. Further, the “ERβ receptor activation relative to 10 nM E2 corresponding 100” value in assay [2] is 7.9%.
The corresponding values for `c1ccc(CCC2=NOC(Cc3ccc4ccccc4c3)C2)cc1` (single isomer, unassigned) [68a, 5-naphthalen-2-yl-methyl-3-phenethyl-4,5-dihydroisoxazole] are 22.3% and 8.2%.
The corresponding values for `Oc1ccc(C2=NOC(Cc3ccccc3)C2)cc1` (single isomer, unassigned) [80b, 5-Benzyl-3-(4-hydroxy-phenyl)-4,5-dihydro-isoxazole] are 58.6% and 17.7%.
For the molecule `c1ccc(CC2CC(c3ccccc3)=NO2)cc1` (single isomer, unassigned) [107b, 5-Benzyl-3-phenyl-4,5-dihydroisoxazole], in assay [1], the “ERα receptor activation relative to 10 nM E2 corresponding 100” value turned out to be 47.2%. In addition, in assay [2], the “ERβ receptor activation relative to 10 nM E2 corresponding 100” value is on record as 12.8%.
The corresponding values for `c1ccc(CCC2=NOC(c3ccccc3)C2)cc1` (single isomer, unassigned) [110b, 3-Phenethyl-5-phenyl-4,5-dihydroisoxazole] are 11.2% and 8.1%.
Consider `Fc1cccc(CC2=NOC(CCc3ccccc3)C2)c1` (stereo not drawn) [69ab, 3-(3-Fluorobenzyl)-5-phenethyl-4,5-dihydroisoxazole], for which the “ERα receptor activation relative to 10 nM E2 corresponding 100” value in assay [1] is 19.5% and 19.7%. Besides, the activation at 10 µM in assay [2] came out at 10.6%.
`COc1ccc(C2=NOC(Cc3ccccc3)C2)cc1` (single isomer, unassigned) [12a, 5-Benzyl-3-(4-methoxyphenyl)-4,5-dihydroisoxazole]: the “ERα receptor activation relative to 10 nM E2 corresponding 100” value in assay [1] is given as 55.2%. For the same molecule, in assay [2], the “ERβ receptor activation relative to 10 nM E2 corresponding 100” value is listed as 17.2%.
As for `Oc1cccc(CCC2=NOC(Cc3ccccc3)C2)c1` (single isomer, unassigned) [92b, 5-Benzyl-3-[2-(3-hydroxy-phenyl)-ethyl]-4,5-dihydro-isoxazole], in assay [1], the “ERα receptor activation relative to 10 nM E2 corresponding 100” value is 15.7%. In addition, the “ERβ receptor activation relative to 10 nM E2 corresponding 100” value in assay [2] is −2.5%.
The corresponding values for `COc1ccc(CCCC2=NOC(c3ccccc3)C2)cc1` (single isomer, unassigned) [72a, 3-[3-(4-Methoxy-phenyl)-propyl]-5-phenyl-4,5-dihydroisoxazole] are 9.2% and −5.8%.
With `COc1ccccc1CC1CC(CCc2ccccc2)=NO1` (single isomer, unassigned) [64a, 5-(2-Methoxybenzyl)-3-phenethyl-4,5-dihydroisoxazole], in assay [1], the “ERα receptor activation relative to 10 nM E2 corresponding 100” value is 18.9%. The activation at 10 µM in assay [2] was 9.5%.
`Oc1ccc(CCCC2=NOC(Cc3ccc(O)cc3)C2)cc1` (single isomer, unassigned) [101b, 5-(4-Hydroxy-benzyl)-3-[3-(4-hydroxy-phenyl)-propyl]-4,5-dihydro-isoxazole]: the “ERα receptor activation relative to 10 nM E2 corresponding 100” value in assay [1] worked out at 13.6%. For the same molecule, the “ERβ receptor activation relative to 10 nM E2 corresponding 100” value in assay [2] came out at 10.6%.
The corresponding values for `c1ccc(CCC2=NOC(CCc3ccccc3)C2)cc1` (single isomer, unassigned) [116b, 3,5-Di-phenethyl-4,5-dihydroisoxazole] are 43.9% and −0.4%.
The corresponding values for `Oc1ccc(CCCC2=NOC(Cc3ccc(O)cc3)C2)cc1` (single isomer, unassigned) [101a, 5-(4-Hydroxy-benzyl)-3-[3-(4-hydroxy-phenyl)-propyl]-4,5-dihydro-isoxazole] are 14.4% and −0.9%.
